Assay results from patent US7718641B2, “Pyrrolo [3,4-H] isoquinoline compounds and methods for modulating gated ion channels” (Aros Pharma ApS, priority 2005, dated 2010).

Tests used:
formalin-induced pain = assay: Formalin test, model of acute tonic pain; type: in vivo, rat; conditions: Automated Nociception Analyser, n=6-8
Protocol: Male Sprague-Dawley rats are housed together in groups of three animals under standard conditions with unrestricted access to food and water. All experiments are conducted according to the ethical guidelines for investigations of experimental pain in conscious animals (Zimmerman, 1983)
Assessment of formalin-induced flinching behavior in normal, uninjured rats (body weight 150-180 g) was made with the use of an Automated Nociception Analyser (University of California, San Diego, USA). Briefly, this involved placing a small C-shaped metal band (10 mm wide×27 mm long) on the hindpaw of the rat to be tested. The rats (four rats were included in each testing session) were then placed in a cylindrical plexiglass observation chamber (diameter 30.5 cm and height 15 cm) for 20 min for adaptation purposes prior to being administered drug or vehicle according to the experimental paradigm being followed. After adaptation, individual rats were then gently restrained and formalin (5% in saline, 50 μl, s.c.) was injected into the plantar surface of the hindpaw using a 27G needle. Rats were then returned to their separate observation chambers, each of which were in turn situated upon an enclosed detection device consisting of two electromagnetic coils designed to produce an electromagnetic field in which movement of the metal band could be detected. The analogue signal was then digitised and a software algorithm (LabView) applied to enable discrimination of flinching behaviour from other paw movements. A sampling interval of 1 min was used and on the basis of the resulting response patterns 5 phases of nociceptive behaviour were identified and scored: first phase (P1; 0-5 min), interphase (Int; 6-15 min), second phase (P2; […]), phase 2A (P2A; 16-40 min) and phase 2B (P2B; 41-60 min).
Nociceptive behavior was also determined manually every 5 min by measuring the amount of time spent in each of four behavioral categories: 0, treatment of the injected hindpaw is indistinguishable from that of the contralateral paw; 1, the injected paw has little or no weight placed on it; 2, the injected paw is elevated and is not in contact with any surface; 3, the injected paw is licked, bitten, or shaken. A weighted nociceptive score, ranging from 0 to 3 was calculated by multiplying the time spent in each category by the category weight, summing these products, and dividing by the total time for each 5 min block of time. (Coderre et al., Pain 1993; 54: 43). On the basis of the resulting response patterns, […] of nociceptive behavior were identified and scored: first phase (P1; 0-5 min), interphase (Int; 6-15 min), second phase (P2; […]), phase 2A (P2A; 16-40 min) and phase 2B (P2B; 41-60 min). […]

hASIC1a = molecular target: T1, hASIC1a (Homo sapiens, UniProt P78348); assay: Calcium-imaging (FLIPR, Fluo-4) of acid (MES)-induced calcium response in ASIC1a expressing HEK293 cells; type: cell-based; set-up: expressed in transfected cells; host or cells: HEK293; conditions: calcium mobilization assay, MES-induced calcium response, HEK293, n=3-7
T1 sequence (P78348 1-528): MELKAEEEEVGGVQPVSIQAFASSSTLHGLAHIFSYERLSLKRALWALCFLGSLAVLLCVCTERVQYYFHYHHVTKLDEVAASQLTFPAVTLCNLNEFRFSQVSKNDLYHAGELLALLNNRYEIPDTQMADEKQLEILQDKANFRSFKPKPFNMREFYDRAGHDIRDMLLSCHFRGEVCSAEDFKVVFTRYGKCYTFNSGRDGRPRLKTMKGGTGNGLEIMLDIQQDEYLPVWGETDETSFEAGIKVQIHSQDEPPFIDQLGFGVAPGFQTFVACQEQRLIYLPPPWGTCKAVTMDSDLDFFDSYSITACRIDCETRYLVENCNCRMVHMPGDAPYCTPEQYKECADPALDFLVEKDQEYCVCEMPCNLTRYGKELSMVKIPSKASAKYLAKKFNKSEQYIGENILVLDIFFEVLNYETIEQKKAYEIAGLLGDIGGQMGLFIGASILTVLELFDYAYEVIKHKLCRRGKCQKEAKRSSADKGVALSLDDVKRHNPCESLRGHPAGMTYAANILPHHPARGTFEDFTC
Protocol: ASIC1a expressing HEK293 cells are grown in culture medium (DMEM with 10% FBS), in polystyrene culture flasks ([…]) at 37° C. in a humidified atmosphere of 5% CO2. Confluency of cells should be 80-90% on day of plating. Cells are rinsed with 10 ml of PBS and re-suspended by addition of culture medium and trituration with a 25 ml pipette.
The cells are seeded at a density of approximately 1×10^6 cells/ml (100 μl/well) in black-walled, clear bottom, 96-well plates pre-treated with 10 mg/l poly-D-lysin (75 μl/well for ≧30 min). Plated cells were allowed to proliferate for 24 h before loading with dye.
Fluo-4/AM (1 mg, Molecular Probes) is dissolved in 912 μl DMSO. The Fluo-4/AM stock solution (1 mM) is diluted with culture medium to a final concentration of 2 μM (loading solution).
The culture medium is aspirated from the wells, and 50 μl of the Fluo-4/AM loading solution is added to each well. The cells are incubated at 37° C. for 30 min.
After the loading period, the loading solution is aspirated and the cells are washed twice with 100 μl modified Assay Buffer (145 mM NaCl, 5 mM KCl, 5 mM CaCl2, 1 mM MgCl2, 10 mM HEPES, pH 7.4) to remove extracellular dye. Following the second wash, 100 μl modified Assay Buffer is added to each well and the fluorescence is measured in FLIPR™ or FlexStation™ (Molecular Devices, USA), or any other suitable equipment known to the skilled in the art.
Temperature: Room temperature (20-22° C.)
First addition: 50 μl test solution at a rate of 30 μl/sec and a starting height of 100 μl.
Second addition: 50 μl MES solution (20 mM, 5 mM final concentration) at a rate of 35 μl/sec and a starting height of 150 μl.
Reading intervals: pre-incubation—10 sec×7 and 3 sec×3 antagonist phase—3 sec×17 and 10 sec×12
Addition plates (compound test plate and MES plate) are placed on the right and left positions in the FLIPR tray, respectively. Cell plates are placed in the middle position and the ASIC1a program is effectuated. FLIPR will then take the appropriate measurements in accordance with the interval settings above. Fluorescence obtained after stimulation is corrected for the mean basal fluorescence (in modified Assay Buffer).
The MES-induced peak calcium response, in the presence of test substance, is expressed relatively to the MES response alone. Test substances that block the MES-induced calcium response are re-tested in triplicates. Confirmed hits are picked for further characterization by performing full dose-response curves to determine potency of each hit compound as represented by the IC50 values (i.e., the concentration of the test substance which inhibits 50% of the MES-induced calcium response; see, for example, FIGS. 1A, 1B and 1C, and FIGS. 13A and 13B).

[1] = tested on: CFA-induced thermal hyperalgesia; assay: CFA model, thermal hyperalgesia (Hargreaves plantar test); type: in vivo, rat
Protocol: Assessment of thermal hyperalgesia: Baseline and post-treatment withdrawal latencies to a noxious thermal stimulus were measured according to Hargreaves (Hargreaves et al., 1988) using a plantar test analgesia meter (IITC, Woodland Hills, Calif., model # 336). The stimulus intensity was set at 30% of maximum output and the cut-off time was set at 30 seconds. Rats were placed on a glass plate warmed to 28° C. and allowed to habituate to the testing chambers for a minimum of 15 minutes prior to each testing session. The thermal stimulus was applied to the plantar surface of the paw, and the mean latency of three readings on each paw was used as the latency value for each time point. Thermal thresholds were defined as the latency in seconds to the first pain behavior, which includes nocifensive paw withdrawal, flinching, biting and/or licking of the stimulated paw. The mean and standard error of the mean (SEM) were determined for the injured and normal paws for each treatment group.
For comparison, results with morphine (6 mg/kg sc) and indomethacin (30 mg/kg po) are shown. […] Data are expressed as mean±SEM, (n=10). **P<0.01, vs. baseline.

[2] = tested on: CFA-induced inflammatory pain; assay: CFA model of chronic inflammatory pain, hindpaw weight bearing (Incapacitance Tester); type: in vivo, rat; conditions: 24 h after CFA, 60 min after drug injection, n=7-8
Protocol: Rats (body weight 260-300 g) were given a s.c. injection of CFA (50% in saline, 100 μl, Sigma) into the plantar surface of the hindpaw under brief halothane anaesthesia. After 24 h, they were then tested for hindpaw weight bearing responses, as assessed using an Incapacitance Tester (Linton Instrumentation, UK), (Zhu et al., 2005). The instrument incorporates a dual channel scale that separately measures the weight of the animal distributed to each hindpaw. While normal rats distribute their body weight equally between the two hindpaws (50-50), the discrepancy of weight distribution between an injured and non-injured paw is a natural reflection of the discomfort level in the injured paw (nocifensive behavior). The rats were placed in the plastic chamber designed so that each hindpaw rested on a separate transducer pad. […] For each rat, three readings from each paw were taken and then averaged. Side-to-side weight bearing difference was calculated as the average of the absolute value of the difference between two hindpaws from three trials (right paw reading-left paw reading).
Hindpaw weight bearing responses were measured in male Sprague-Dawley rats for 2-3 days prior to being given a hindpaw injection of CFA. Twenty-four hours later baseline responses were measured and rats were then administered Compound A (5, 10 and 20 mg/kg, i.p.), Compound H (10, 30 and 60 mg/kg) and morphine (3, 6 and 10 mg/kg). Weight bearing responses were then measured at 30, 60 and 120 min after drug or vehicle injection (data shown at 60 min.). […] Data are expressed as mean +/−SEM. *P<0.05, **P<0.01, *** P<0.001 vs baseline; +++: P<0.001 vs vehicle. All groups n=7-8.

CCN1CCc2c(-c3cc(F)ccc3OC)cc3c(c2C1)NC(=O)/C3=N/O [Compound B, 5-(5-fluoro-2-methoxyphenyl)-6,7,8,9-tetrahydro-3-(hydroxyimino)-8-ethyl-1H-pyrrolo[3,2-h]isoquinoline-2(3H)-one]
pain intensity as evaluated by the flinching behavior (formalin-induced pain): dose-dependent reduction of the pain intensity
IC50 (hASIC1a): 20 to 30 nM

COc1ccc2c(c1)c(CC(=O)O)c(C)n2C(=O)c1ccc(Cl)cc1 [indomethacin, reference compound]
efficacy on CFA-induced thermal hyperalgesia ([1]; 30 mg/kg po): fully efficacious

CN1CC[C@]23c4c5ccc(O)c4O[C@H]2[C@@H](O)C=C[C@H]3[C@H]1C5 [morphine, reference compound]
efficacy on CFA-induced thermal hyperalgesia ([1]; 6 mg/kg sc): fully efficacious
CFA-induced change in hindpaw weight bearing compared with vehicle [2]: marked dose-dependent attenuation in the CFA-induced change in weight bearing
